The text below walks through data of patent US11179356B2, “Methods and compositions to modulate the gut microbiota and to manage weight” (Xeno Biosciences Inc., priority 2015, dated 2021).

The conditions of experiment [1]: over one year; cited from earlier work.
In the next experiment the test system is gut microbiota. Kind of experiment: Oral gavage of non-formulated peroxide, 16S rRNA sequencing of fecal samples (Example 7). The experiment is classed as in vivo, Sprague Dawley lean rats. The conditions noted are these: rats, oral gavage three times daily in acidified water, total dose 600 mg/kg body weight, 3 days. The method, then: (§1) 6-7 week old Sprague Dawley lean rats were orally gavaged three times daily either with carbamide peroxide dissolved in acidified water as the treatment arm (total dose=600 mg/kg body weight) or with acidified water alone as the control arm (12 […] per arm) for 3 days. Gavage solution was prepared immediately before oral gavaging was performed. Each rat was fed a normal chow diet throughout (Research Diets) and kept under 12 hr-12 hr light-dark cycle in its own metabolic cage. Fresh fecal samples were collected at day 0 (basal measurement, before dosing start) and at the end of day 3 (after the final dose) and immediately stored at −80 C. Later, 16S rRNA sequencing was performed to measure relative abundance of different taxa in the stool samples. Body weight and food intake were measured daily.

A short description of experiment [2]: Oral gavage of non-formulated peroxide, body weight and food intake (Example 7). The experiment is classed as in vivo, Sprague Dawley lean rats. Conditions: rats, oral gavage three times daily in acidified water, total dose 600 mg/kg body weight, 3 days. The method, then: as §1

Structures are written as SMILES.

As to `CC(C)(N)Cc1ccccc1` [Phentermine], the weight loss in experiment [1] is given as 4-5%.
With `CCCCCCCCCCC[C@@H](C[C@@H]1OC(=O)[C@H]1CCCCCC)OC(=O)[C@H](CC(C)C)NC=O` [Xenical], the weight loss in experiment [1] is reported as 3-4%.
On to `NC(N)=O.OO` [carbamide peroxide], for which, in the experiment with gut microbiota, the “change in gut microbiota composition between Day 0 and Day 3, treatment arm and control arm” value is recorded as “No significant change”. Besides, in experiment [2], the “body weight, treatment versus control arm” value is given as “no significant differences” and the “food intake, treatment versus control arm” value is on record as “no significant differences”.
